Assay results from patent US20260083704A1, “LXR MODULATORS WITH BICYCLIC CORE MOIETY FOR TREATING DYSLIPIDEMIAS” (OrsoBio, Inc., priority 2022, published 2026).

Experiments:
[1] = target: T1, GST-LXRβ ligand-binding domain (Homo sapiens, UniProt P55055); experiment: TR-FRETβ activity assay (NCoA3 coactivator peptide recruitment); type: biochemical; conditions: 1 μM 24(S)-25-epoxycholesterol prestimulation
T1 construct: amino acids 156-461; NP009052; made in house; host or cells: E. coli
T1 sequence (P55055 156-460 limits assumed): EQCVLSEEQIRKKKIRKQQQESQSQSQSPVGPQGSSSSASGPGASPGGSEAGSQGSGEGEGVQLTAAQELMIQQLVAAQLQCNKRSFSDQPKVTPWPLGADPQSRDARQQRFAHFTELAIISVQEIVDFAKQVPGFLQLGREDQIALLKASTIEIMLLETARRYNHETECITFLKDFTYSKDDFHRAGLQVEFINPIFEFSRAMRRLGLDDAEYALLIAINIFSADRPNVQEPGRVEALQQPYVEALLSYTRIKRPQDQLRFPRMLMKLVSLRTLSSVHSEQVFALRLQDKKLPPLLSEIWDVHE
Description: Recombinant GST-LXRβ ligand-binding domain (LBD; amino acids 156-461; NP009052; SEQ ID NO:4) was expressed in E. coli and purified via gluthatione-sepharose affinity chromatography. N-terminally biotinylated NCoA3 coactivator peptide (SEQ ID NO:7) was chemically synthesized (Eurogentec). Assays were done in 384 well format (final assay volume of 25 μL/well) in a Tris/HCl buffer (pH 6.8) containing KCl, bovine serum albumin, Triton-X-100 and 1 μM 24(S)-25-epoxycholesterol as LXR-prestimulating agonist. Assay buffer was provided and test articles (potential LXR inverse agonists) were titrated to yield final assay concentrations of 50 μM, 16.7 μM, 5.6 μM, 1.9 μM, 0.6 μM, 0.2 μM, 0.07 μM, 0.02 μM, 0.007 μM, 0.002 μM with one vehicle control. Finally, a detection mix was added containing anti GST-Tb cryptate (CisBio; 610SAXLB) and Streptavidin-XL665 (CisBio; 610SAXLB) as fluorescent donor and acceptor, respectively, as well as the coactivator peptide and LXRβ-LBD protein (SEQ ID NO:4). The reaction was mixed thoroughly, equilibrated for 1 h at 4° C. and vicinity of LXRβ and coactivator peptide was detected by measurement of fluorescence in a VictorX4 multiplate reader (PerkinElmer Life Science) using 340 nm as excitation and 615 and 665 nm as emission wavelengths. Assays were performed in triplicates.
240 mM KCl, 1 μg/μL BSA, 0.002% Triton-X-100, […] anti GST-Tb cryptate, 2.5 ng/μL Streptavidin-XL665, coactivator peptide (400 nM), LXRβ protein (530 μg/mL, i.e. 76 nM).

LXRβ = target: T2, LXRβ (Homo sapiens, UniProt P55055); experiment: LXR Gal4 reporter transient transfection assay (mammalian two-hybrid, HEK293), LXRβ; type: cell-based; set-up: LXRβ (amino acids 156-461); expressed in transfected cells; host or cells: HEK293; conditions: full length (FL) LXRβ, HEK293; read-out: FL-M2H Gal4β
T2 sequence (P55055 1-460): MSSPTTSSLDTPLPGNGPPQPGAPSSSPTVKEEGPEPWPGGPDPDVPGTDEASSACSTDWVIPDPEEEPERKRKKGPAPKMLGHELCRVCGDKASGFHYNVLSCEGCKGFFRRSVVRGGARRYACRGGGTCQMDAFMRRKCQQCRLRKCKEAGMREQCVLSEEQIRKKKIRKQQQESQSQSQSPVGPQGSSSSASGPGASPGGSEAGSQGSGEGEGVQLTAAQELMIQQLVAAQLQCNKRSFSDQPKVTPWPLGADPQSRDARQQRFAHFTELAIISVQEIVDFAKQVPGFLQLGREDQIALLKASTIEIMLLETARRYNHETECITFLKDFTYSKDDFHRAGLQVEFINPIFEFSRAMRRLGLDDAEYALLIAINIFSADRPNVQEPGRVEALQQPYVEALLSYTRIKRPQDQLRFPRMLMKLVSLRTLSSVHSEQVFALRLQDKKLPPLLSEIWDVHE
Description: LXRα and LXRβ activity status was determined via detection of interaction with coactivator and corepressor proteins in mammalian two-hybrid experiments (M2H). For this, via transient transfection the full length (FL) proteins of LXRα (amino acids 1-447; NP005684; SEQ ID NO:1) or LXRβ-(amino acids 1-461; NP009052; SEQ ID NO:2) or the ligand-binding domains (LBD) of LXRα (amino acids 155-447 SEQ ID NO:3) or LXRβ (amino acids 156-461; SEQ ID NO:4) were expressed from pCMV-AD (Stratagene) as fusions to the transcriptional activation domain of NFkB. As cofactors, domains of either the steroid receptor coactivator 1 (SRC1; amino acids 552-887; SEQ ID NO:5) or of the corepressor NCoR (amino acids 1906-2312; NP006302; SEQ ID NO:6) were expressed as fusions to the DNA binding domain of the yeast transcription factor GAL4 (from pCMV-BD; Stratagene). Interaction was monitored via activation of a coexpressed Firefly Luciferase Reporter gene under control of a promoter containing repetitive GAL4 response elements (vector pFRLuc; Stratagene). Transfection efficiency was controlled via cotransfection of constitutively active pRL-CMV Renilla reniformis luciferase reporter (Promega). HEK293 cells were grown in minimum essential medium (MEM) with 2 mM L-glutamine and Earle's balanced salt solution supplemented with 8.3% fetal bovine serum, 0.1 mM non-essential amino acids, 1 mM sodium pyruvate, at 37° C. in 5% CO2. 3.5×10^4 cells/well were plated in 96-well cell culture plates in growth medium supplemented with 8.3% fetal bovine serum for 16-20 h to ˜90% confluency. For transfection, medium was taken off and LXR and cofactor expressing plasmids as well as the reporter plasmids are added in 30 μL OPTIMEM/well including polyethylene-imine (PEI) as vehicle. Typical amounts of plasmids transfected/well: pCMV-AD-LXR (5 ng), pCMV-BD-cofactor (5 ng), pFR-Luc (100 ng), pRL-CMV (0.5 ng). Compound stocks were prepared in DMSO, prediluted in MEM to a total volume of 120 μL, and added 4 h after addition of the transfection mixture (final vehicle concentration not exceeding 0.2%). Cells were incubated for additional 16 h, lysed for 10 min in 1×Passive Lysis Buffer (Promega) and Firefly and Renilla luciferase activities were measured sequentially in the same cell extract using buffers containing D-luciferine and coelenterazine, respectively. Measurements of luminescence were done in a BMG-luminometer.
The potencies of Compound 21/3 and its analog, Compound pre-6/3, against LXRα and LXRβ were evaluated in biochemical binding assays, cellular mammalian two-hybrid (M2H) interaction assays evaluating nuclear receptor co-repressor (NCOR) recruitment, and cellular reporter assays evaluating transcriptional activity (Table 5).

COc1ccc2c(c1)c(-c1ccsc1C#N)c(-c1cccs1)n2S(=O)(=O)c1ccc(Cl)cc1 [1/39]
EC50 [1]: > 10000 nM

COC(=O)c1ccc(-c2cccc(-c3c(-c4c(C)cccc4C#N)c4cc(F)ccc4n3S(=O)(=O)c3ccc(C(F)F)cc3)c2)c(Cl)c1 [1/122]
EC50 [1]: 100 to 1000 nM
EC50 (LXRβ): < 100 nM

N#Cc1cccc(C#N)c1-c1c(-c2cccc(Br)c2)n(S(=O)(=O)c2ccc(C(F)F)cc2)c2ccc(F)cc12 [1/139]
EC50 [1]: 100 to 1000 nM
EC50 (LXRβ): < 100 nM

Cc1ccc(S(=O)(=O)n2c(-c3cccc(-c4ccc(CN)cc4Cl)c3)c(-c3ccsc3C#N)c3cc(F)ccc32)cc1 [2/1]
EC50 [1]: 100 to 1000 nM
EC50 (LXRβ): 100 to 1000 nM

Cc1ccc(S(=O)(=O)n2c(-c3cccc(-c4ccc(C(C)(C)N)cc4Cl)c3)c(-c3ccsc3C#N)c3cc(F)ccc32)cc1 [2/2]
EC50 [1]: 100 to 1000 nM
EC50 (LXRβ): 100 to 1000 nM

Cc1ccc(S(=O)(=O)n2c(-c3cccc(-c4cc(F)c(CO)c(S(C)(=O)=O)c4)c3)c(-c3ccsc3C#N)c3cc(F)ccc32)cc1 [2/16]
EC50 [1]: < 100 nM
EC50 (LXRβ): < 100 nM

Cc1ccc(S(=O)(=O)n2c(-c3cccc(-c4ccc(C(C)(C)C(=O)O)c(S(C)(=O)=O)c4)c3)c(-c3ccsc3C#N)c3cc(F)ccc32)cc1 [2/18]
EC50 [1]: 100 to 1000 nM
EC50 (LXRβ): < 100 nM

Cc1ccc(S(=O)(=O)n2c(-c3cccc(C4(C)CC4C(=O)O)c3)c(-c3ccsc3C#N)c3cc(F)ccc32)cc1 (centres unmarked) [3/1]
EC50 [1]: 100 to 1000 nM
EC50 (LXRβ): 100 to 1000 nM

Cc1ccc(S(=O)(=O)n2c(-c3cccc(C4(C)CC4C(=O)O)c3)c(-c3ccsc3C#N)c3cc(F)ccc32)cc1 (centres unmarked) [3/2]
EC50 [1]: 1000 to 10000 nM
EC50 (LXRβ): < 100 nM

COc1sccc1-c1c(-c2cccc(N3CC(C(=O)O)C3)c2)n(S(=O)(=O)c2ccc(C)cc2)c2ccc(F)cc12 [3/3]
EC50 [1]: 1000 to 10000 nM
EC50 (LXRβ): 100 to 1000 nM

Cc1ccc(S(=O)(=O)n2c(-c3cccc(N4CC(C(=O)O)C4)c3)c(-c3ccsc3C(F)F)c3cc(F)ccc32)cc1 [3/4]
EC50 [1]: 100 to 1000 nM
EC50 (LXRβ): < 100 nM

Cc1ccc(S(=O)(=O)n2c(-c3cccc(N4CC(C(=O)O)C4)c3)c(-c3ccsc3C=O)c3cc(F)ccc32)cc1 [3/5]
EC50 [1]: 100 to 1000 nM
EC50 (LXRβ): 100 to 1000 nM

COCc1sccc1-c1c(-c2cccc(N3CC(C(=O)O)C3)c2)n(S(=O)(=O)c2ccc(C)cc2)c2ccc(F)cc12 [3/6]
EC50 [1]: 1000 to 10000 nM
EC50 (LXRβ): 100 to 1000 nM

Cc1ccc(S(=O)(=O)n2c(-c3cccc(N4CC(C(=O)O)C4)c3)c(-c3ccsc3/C=N/O)c3cc(F)ccc32)cc1 [3/7]
EC50 [1]: 1000 to 10000 nM
EC50 (LXRβ): < 100 nM

CCc1ccc(S(=O)(=O)n2c(-c3cccc(N4CC(C(=O)O)C4)c3)c(-c3ccsc3C#N)c3cc(F)ccc32)cc1 [3/10]
EC50 [1]: 100 to 1000 nM
EC50 (LXRβ): < 100 nM

N#Cc1sccc1-c1c(-c2cccc(N3CC(C(=O)O)C3)c2)n(S(=O)(=O)c2ccc(OC(F)F)cc2)c2ccc(F)cc12 [3/11]
EC50 [1]: 1000 to 10000 nM

N#Cc1sccc1-c1c(-c2cccc(N3CC(C(=O)O)C3)c2)n(S(=O)(=O)c2ccc3c(c2)CCC3)c2ccc(F)cc12 [3/12]
EC50 [1]: 100 to 1000 nM
EC50 (LXRβ): < 100 nM

N#Cc1sccc1-c1c(-c2cccc(N3CC(C(=O)O)C3)c2)n(S(=O)(=O)c2ccc3ccccc3c2)c2ccc(F)cc12 [3/13]
EC50 [1]: 1000 to 10000 nM
EC50 (LXRβ): < 100 nM

Cc1ccc(S(=O)(=O)n2c(-c3cccc(N4CC(C(=O)O)C4)c3)c(-c3ccsc3C#N)c3cc(F)ccc32)c(F)c1 [3/14]
EC50 [1]: 1000 to 10000 nM
EC50 (LXRβ): 100 to 1000 nM

Cc1ccc(S(=O)(=O)n2c(-c3cccc(S(=O)(=O)CC(=O)O)c3)c(-c3ccsc3C#N)c3ccccc32)cc1 [3/15]
EC50 [1]: 1000 to 10000 nM

CC1CCN(S(=O)(=O)n2c(-c3cccc(-c4ccc(C(=O)O)cc4Cl)c3)c(-c3ccsc3C#N)c3cc(F)ccc32)CC1 [3/21]
EC50 [1]: 100 to 1000 nM
EC50 (LXRβ): < 100 nM

[2H]c1c([2H])c(S(=O)(=O)n2c(-c3cccc(-c4ccc(C(=O)O)cc4Cl)c3)c(-c3ccsc3C#N)c3cc(F)ccc32)c([2H])c([2H])c1C([2H])([2H])[2H] [3/22]
EC50 [1]: < 100 nM
EC50 (LXRβ): < 100 nM

Cc1cc(S(=O)(=O)n2c(-c3cccc(-c4ccc(C(=O)O)cc4Cl)c3)c(-c3ccsc3C#N)c3cc(F)ccc32)ccc1F [3/23]
EC50 [1]: 100 to 1000 nM
EC50 (LXRβ): < 100 nM

Cc1ccc(S(=O)(=O)n2c(-c3cccc(N4CC(C(=O)O)C4)c3)c(-c3sccc3C#N)c3cc(F)ccc32)cc1 [3/25]
EC50 [1]: 1000 to 10000 nM
EC50 (LXRβ): < 100 nM

CC(O)(C(=O)O)c1ccc(-c2cccc(-c3c(-c4c(C#N)cccc4C#N)c4cc(F)ccc4n3S(=O)(=O)c3ccc(C(F)F)cc3)c2)c(Cl)c1 (centres unmarked) [11/60]
EC50 (LXRβ): < 100 nM

N#Cc1sccc1-c1c(-c2cccs2)n(S(=O)(=O)c2ccc(Cl)cc2)c2cc(OCC(=O)O)ccc12 [15/3]
EC50 [1]: > 10000 nM

N#Cc1sccc1-c1c(-c2ccccc2)n(S(=O)(=O)c2ccc(CC(=O)O)cc2)c2ccccc12 [27/1]
EC50 [1]: 1000 to 10000 nM

N#Cc1sccc1-c1c(-c2ccccc2)n(S(=O)(=O)c2ccc(-c3cccc(C(=O)O)c3)cc2)c2ccccc12 [27/2]
EC50 [1]: 1000 to 10000 nM

N#Cc1sccc1-c1c(-c2ccccc2)n(S(=O)(=O)c2ccc(CC(=O)O)s2)c2ccccc12 [27/3]
EC50 [1]: > 10000 nM

Cn1cnc(S(=O)(=O)n2c(-c3cccc(C4CC4C(=O)O)c3)c(-c3ccsc3C#N)c3ccccc32)c1 (centres unmarked) [30/10]
EC50 [1]: > 10000 nM

Cc1cccc(C#N)c1-c1c(-c2cccc(-c3ccc(C(=O)O)cc3Cl)c2)n(S(=O)(=O)c2ccc(C(F)F)cc2)c2ccc(F)cc12 [41/1, 2-chloro-3′-(3-(2-cyano-6-methylphenyl)-1-((4-(difluoro-methyl)phenyl)sulfonyl)-5-fluoro-1H-indol-2-yl)-[1,1′-biphenyl]-4-carboxylic acid]
EC50 [1]: < 100 nM

N#Cc1sccc1-c1c(-c2cccs2)n(S(=O)(=O)c2ccc(Cl)cc2)c2cc(C(=O)O)ccc12 [Compound 19]
EC50 [1]: > 10000 nM
